The test concerns the target T1, Itk (Homo sapiens, UniProt Q08881).
T1 sequence (Q08881 1-620): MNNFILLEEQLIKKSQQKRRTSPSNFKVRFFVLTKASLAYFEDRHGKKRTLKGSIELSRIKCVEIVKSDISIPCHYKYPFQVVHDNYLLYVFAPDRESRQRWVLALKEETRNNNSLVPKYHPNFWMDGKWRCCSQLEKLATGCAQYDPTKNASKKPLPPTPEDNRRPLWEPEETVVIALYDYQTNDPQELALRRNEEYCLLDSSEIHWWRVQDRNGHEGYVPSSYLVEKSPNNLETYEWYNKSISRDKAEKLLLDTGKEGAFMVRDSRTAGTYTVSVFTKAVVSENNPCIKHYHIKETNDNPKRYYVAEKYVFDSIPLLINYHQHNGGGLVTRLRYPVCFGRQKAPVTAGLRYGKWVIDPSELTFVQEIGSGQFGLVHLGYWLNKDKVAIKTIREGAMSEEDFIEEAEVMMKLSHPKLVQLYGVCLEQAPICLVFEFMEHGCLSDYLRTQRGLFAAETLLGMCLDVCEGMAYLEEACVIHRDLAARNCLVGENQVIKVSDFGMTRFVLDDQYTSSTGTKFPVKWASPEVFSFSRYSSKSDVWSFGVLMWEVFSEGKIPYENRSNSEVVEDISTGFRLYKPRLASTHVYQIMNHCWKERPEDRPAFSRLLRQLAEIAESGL
As to the kind of experiment: ITK inhibition assay, radioactive-phosphate incorporation. It is filed as biochemical. The following applies: [γ-33P]ATP, SAM68 peptide, 25° C. As for the experimental part:
Assays were carried out in a mixture of 20 mM MOPS (pH 7.0), 10 mM MgCl2, 0.1% BSA and 1 mM DTT. […] Assays were carried out at 25° C. in the presence of 50 nM Itk. An assay stock buffer solution was prepared containing all of the reagents listed above, with the exception of ATP and the test compound of interest.
The reaction was stopped after 10 minutes by the addition of […] 0.2M phosphoric acid+0.01% TWEEN 20. A multiscreen phosphocellulose filter 96-well plate (Millipore, Cat no. MAPHN0B50) was pretreated with 100 μL 0.2M phosphoric acid+0.01% TWEEN 20 prior to the addition of […] of the stopped assay mixture. The plate was washed with 4×200 μL 0.2M phosphoric acid+0.01% TWEEN 20.
Ki(app) data were calculated from non-linear regression analysis of the initial rate data using the Prism software package (GraphPad Prism version 3.0cx for Macintosh, GraphPad Software, San Diego Calif., USA).
Regarding `O=C(Nc1cc(-c2ccncc2)c[nH]c1=O)c1ccc(Br)cc1` [Compound I-20, 4-Bromo-N-(1,2-dihydro-2-oxo-5-(pyridin-4-yl)pyridin-3-yl)benzamide], the Ki was in the range of 100 to 1000 nM.

In the case of `CC(C)Oc1ccc(C(=O)Nc2cc(-c3ccncc3)c[nH]c2=O)cc1` [Compound I-21], the Ki was in the range of 100 to 1000 nM.

On to `O=C(Nc1cc(-c2ccncc2)c[nH]c1=O)c1ccc(Oc2ccccc2)cc1` [Compound I-22], for which the Ki was 100 to 1000 nM.

Consider `O=C(Nc1cc(-c2ccncc2)c[nH]c1=O)c1ccc(Cl)cc1` [Compound I-27], for which the Ki lay within 100 to 1000 nM.

In the case of `CN(C)c1ccc(C(=O)Nc2cc(-c3ccncc3)c[nH]c2=O)cc1` [Compound I-45], the inhibition constant Ki was 100 to 1000 nM.

Consider `O=C(Nc1cc(-c2ccncc2)c[nH]c1=O)c1ccc(OCc2ccccc2)cc1` [Compound I-46], for which the Ki fell in the range of 100 to 1000 nM.

Consider `O=C(Nc1cc(-c2ccncc2)c[nH]c1=O)c1ccc(O)cc1` [Compound I-47], for which the Ki lay within 100 to 1000 nM.

Consider `O=C(Nc1cc(-c2ccncc2)c[nH]c1=O)c1ccc(N2CCC(O)CC2)cc1` [Compound I-72], for which the inhibition constant (Ki) was 100 to 1000 nM.

Turning to `O=C(Nc1cc(-c2ccncc2)c[nH]c1=O)c1ccc(N2CCOCC2)cc1` [Compound I-73], the Ki is 100 to 1000 nM.

Turning to `O=C(Nc1cc(-c2ccncc2)c[nH]c1=O)c1ccc(N2CCC(N3CCCC3)CC2)cc1` [Compound I-75], the Ki was 100 to 1000 nM.

On to `COCCCN1CCN(c2ccc(C(=O)Nc3cc(-c4ccncc4)c[nH]c3=O)cc2)CC1` [Compound I-77], for which the Ki was less than 100 nM.

As for `O=C(Nc1cc(-c2ccncc2)c[nH]c1=O)c1ccc(N2CCN(CCOCCO)CC2)cc1` [Compound I-81], the Ki was less than 100 nM.

As for `CNCCCN(C)Cc1ccc(C(=O)Nc2cc(-c3ccncc3)c[nH]c2=O)cc1` [Compound I-85], the Ki is 100 to 1000 nM.

Consider `CNCCNc1nccc(-c2c[nH]c(=O)c(NC(=O)c3ccc(C(C)(C)C)cc3)c2)n1` [II-20], for which the Ki was less than 100 nM.

As to `CN(C)c1nccc(-c2c[nH]c(=O)c(NC(=O)c3ccc(C(C)(C)C)cc3)c2)n1` [II-21], the Ki lay within 100 to 1000 nM.

As to `CCNc1nccc(-c2c[nH]c(=O)c(NC(=O)c3ccc(C(C)(C)C)cc3)c2)n1` [II-22], the inhibition constant (Ki) was less than 100 nM.

Regarding `CC(C)Nc1nccc(-c2c[nH]c(=O)c(NC(=O)c3ccc(C(C)(C)C)cc3)c2)n1` [II-23], the Ki is less than 100 nM.

Consider `CC(C)(C)c1ccc(C(=O)Nc2cc(-c3cccc(NC4CCNCC4)n3)c[nH]c2=O)cc1` [II-32], for which the Ki was in the range of 100 to 1000 nM.

For `CC(C)(C)c1ccc(C(=O)Nc2cc(-c3ccncn3)c[nH]c2=O)cc1` [II-34], the Ki is 100 to 1000 nM.

Turning to `CC(C)(C)c1ccc(C(=O)Nc2cc(-c3cc(N[C@@H]4CCNC4)ncn3)c[nH]c2=O)cc1` [II-39], the Ki lay within 100 to 1000 nM.

Take `O=C(Nc1cc(-c2cc(N[C@@H]3CCNC3)ncn2)c[nH]c1=O)c1ccc(N2CCCCC2)cc1` [II-45]: the Ki was 100 to 1000 nM.

Take `CSc1nccc(-c2c[nH]c(=O)c(NC(=O)c3ccc(N4CCCCC4)cc3)c2)n1` [II-52]: the inhibition constant Ki lay within 100 to 1000 nM.

Consider `CNc1ccnc(-c2c[nH]c(=O)c(NC(=O)c3ccc(N4CCCCC4)cc3)c2)n1` [II-56], for which the inhibition constant Ki was in the range of 100 to 1000 nM.

`CCOc1nccc(-c2c[nH]c(=O)c(NC(=O)c3ccc(N4CCCCC4)cc3)c2)n1` [II-57]: the Ki was 100 to 1000 nM.

As for `O=C(Nc1cc(-c2ccnc(NCCO)n2)c[nH]c1=O)c1ccc(N2CCCCC2)cc1` [II-59], the Ki was in the range of 100 to 1000 nM.

In the case of `CNCCNc1cccc(-c2c[nH]c(=O)c(NC(=O)c3ccc(N4CCCCC4)cc3)c2)n1` [II-60], the Ki fell in the range of 100 to 1000 nM.

For `CNc1ncc(C)c(-c2c[nH]c(=O)c(NC(=O)c3ccc(C(C)(C)C)cc3)c2)n1` [II-62], the Ki fell in the range of 100 to 1000 nM.

In the case of `CNc1nccc(-c2c[nH]c(=O)c(NC(=O)c3ccccc3)c2)n1` [II-64], the Ki was less than 100 nM.

As to `CCc1cc(-c2c[nH]c(=O)c(NC(=O)c3ccc(N4CCCCC4)cc3)c2)nc(NC)n1` [II-66], the Ki is less than 100 nM.

Turning to `CNc1cccc(-c2c[nH]c(=O)c(NC(=O)c3ccc(N4CCCCC4)cc3)c2)c1` [II-69], the Ki lay in the range of 100 to 1000 nM.

Take `O=C(Nc1cc(-c2cccc(NCCO)n2)c[nH]c1=O)c1ccc(N2CCCCC2)cc1` [II-70]: the Ki was 100 to 1000 nM.

Regarding `COCCNc1cccc(-c2c[nH]c(=O)c(NC(=O)c3ccc(N4CCCCC4)cc3)c2)n1` [II-71], the Ki was in the range of 100 to 1000 nM.

Take `CNCCOc1nccc(-c2c[nH]c(=O)c(NC(=O)c3ccc(N4CCCCC4)cc3)c2)n1` [II-76]: the Ki was in the range of 100 to 1000 nM.

As for `CNCCN(C)c1cccc(-c2c[nH]c(=O)c(NC(=O)c3ccc(N4CCCCC4)cc3)c2)n1` [II-95], the inhibitory constant (Ki) lay within 100 to 1000 nM.

As to `CNc1nccc(-c2c[nH]c(=O)c(NC(=O)c3ccc(OCc4ccccc4)cc3)c2)n1` [II-97], the Ki is less than 100 nM.

For `CNc1nccc(-c2c[nH]c(=O)c(NC(=O)c3ccc(Cc4ccccc4)cc3)c2)n1` [II-98], the Ki lay in the range of 100 to 1000 nM.

With `N#Cc1cncc(-c2c[nH]c(=O)c(NC(=O)c3ccc(N4CCCCC4)cc3)c2)c1` [II-99], the Ki lay in the range of 100 to 1000 nM.

Regarding `O=C(Nc1cc(-c2ccncc2)c[nH]c1=O)c1ccc(N2CCNCC2)nc1` [II-100], the Ki is 100 to 1000 nM.

As for `CC(=O)NCCNc1cccc(-c2c[nH]c(=O)c(NC(=O)c3ccc(N4CCCCC4)cc3)c2)n1` [II-101], the Ki was 100 to 1000 nM.

As for `O=C(Nc1cc(-c2cccc(NCCN3CCCC3)n2)c[nH]c1=O)c1ccc(N2CCCCC2)cc1` [II-104], the Ki lay in the range of 100 to 1000 nM.

With `O=C(Nc1cc(-c2cccc(NCC3CCNCC3)n2)c[nH]c1=O)c1ccc(N2CCCCC2)cc1` [II-105], the Ki was in the range of 100 to 1000 nM.

On to `CNc1nccc(-c2c[nH]c(=O)c(NC(=O)c3ccc(NCCCN)cc3)c2)n1` [II-107], for which the Ki is less than 100 nM.

Take `CC(C)[C@@H](CO)Nc1cccc(-c2c[nH]c(=O)c(NC(=O)c3ccc(N4CCCCC4)cc3)c2)n1` [II-108]: the Ki was 100 to 1000 nM.

Regarding `CCN1CCCC1CNc1cccc(-c2c[nH]c(=O)c(NC(=O)c3ccc(N4CCCCC4)cc3)c2)n1` (stereo not drawn) [II-120], the Ki was 100 to 1000 nM.

On to `O=C(Nc1cc(-c2cccc(CO)n2)c[nH]c1=O)c1ccc(N2CCCCC2)cc1` [II-121], for which the Ki lay within 100 to 1000 nM.

On to `CNc1cc(-c2c[nH]c(=O)c(NC(=O)c3ccc(N4CCCCC4)cc3)c2)nc(NC)n1` [II-123], for which the Ki was in the range of 100 to 1000 nM.

For `CNC(=O)c1cccc(-c2c[nH]c(=O)c(NC(=O)c3ccc(N4CCCCC4)cc3)c2)n1` [II-124], the Ki fell in the range of 100 to 1000 nM.

On to `CNc1cc(-c2c[nH]c(=O)c(NC(=O)c3ccc(N4CCNCC4)cc3)c2)ncn1` [II-126], for which the Ki was less than 100 nM.

For the molecule `C[C@H](CN)Nc1cccc(-c2c[nH]c(=O)c(NC(=O)c3ccc(N4CCCCC4)cc3)c2)n1` [II-129], the Ki is less than 100 nM.

Regarding `CNc1nc(C)cc(-c2c[nH]c(=O)c(NC(=O)c3ccc(N4CCCCC4)cc3)c2)n1` [II-130], the Ki was less than 100 nM.

As for `CC(C)[C@@H](CO)Nc1cncc(-c2c[nH]c(=O)c(NC(=O)c3ccc(N4CCNCC4)cc3)c2)n1` [II-131], the Ki is less than 100 nM.

In the case of `CC(C)[C@H](CO)Nc1cccc(-c2c[nH]c(=O)c(NC(=O)c3ccc(N4CCCCC4)cc3)c2)n1` [II-132], the Ki was 100 to 1000 nM.

`CC(C)(C)C(CO)Nc1cccc(-c2c[nH]c(=O)c(NC(=O)c3ccc(N4CCCCC4)cc3)c2)n1` (stereo not drawn) [II-133]: the Ki lay in the range of 100 to 1000 nM.

Turning to `CNc1cccc(-c2c[nH]c(=O)c(NC(=O)c3ccc(OCCC4CCNCC4)cc3)c2)n1` [II-134], the Ki is less than 100 nM.

For the molecule `CNc1cc(-c2c[nH]c(=O)c(NC(=O)c3ccc(N4C[C@@H](C)N[C@@H](C)C4)cc3)c2)ncn1` [II-135], the Ki was less than 100 nM.

In the case of `CNc1cc(-c2c[nH]c(=O)c(NC(=O)c3ccc(N4CCC[C@H]4CN4CCCC4)cc3)c2)ncn1` [II-136], the Ki is less than 100 nM.

For `CNc1cc(-c2c[nH]c(=O)c(NC(=O)c3ccc(C4=CCNCC4)cc3)c2)ncn1` [II-137], the Ki was 100 to 1000 nM.

`CNc1cccc(-c2c[nH]c(=O)c(NC(=O)c3ccc(OCCN4CCNCC4)cc3)c2)n1` [II-138]: the Ki was less than 100 nM.

For `CNc1cncc(-c2c[nH]c(=O)c(NC(=O)c3ccc(N4CCNCC4)cc3)c2)n1` [II-139], the inhibition constant (Ki) is less than 100 nM.

In the case of `O=C(Nc1cc(-c2ccccn2)c[nH]c1=O)c1ccc(N2CCCCC2)cc1` [II-140], the Ki lay in the range of 100 to 1000 nM.

On to `CNc1cc(-c2c[nH]c(=O)c(NC(=O)c3ccc(OCCC4CCNCC4)cc3)c2)ncn1` [II-142], for which the Ki is less than 100 nM.

Turning to `Cn1cncc1-c1c[nH]c(=O)c(NC(=O)c2ccc(N3CCNCC3)cc2)c1` [II-144], the Ki fell in the range of 100 to 1000 nM.

As to `CNc1cncc(-c2c[nH]c(=O)c(NC(=O)c3ccc(N4CCC[C@H]4CN4CCCC4)cc3)c2)n1` [II-145], the Ki was less than 100 nM.

The Ki is the equilibrium dissociation constant of an inhibitor or competing ligand from its target.

The record behind these values is patent US8338597B2, “Pyridones useful as inhibitors of kinases” (Vertex Pharmaceuticals Incorporated, priority 2004, dated 2012).
